Test [1] deals with T1, renin in human high renin plasma (Homo sapiens, UniProt P00797).
T1 construct: 500 μl of human high renin plasma; from tissue; host or cells: human high renin plasma
T1 sequence (P00797 67-406): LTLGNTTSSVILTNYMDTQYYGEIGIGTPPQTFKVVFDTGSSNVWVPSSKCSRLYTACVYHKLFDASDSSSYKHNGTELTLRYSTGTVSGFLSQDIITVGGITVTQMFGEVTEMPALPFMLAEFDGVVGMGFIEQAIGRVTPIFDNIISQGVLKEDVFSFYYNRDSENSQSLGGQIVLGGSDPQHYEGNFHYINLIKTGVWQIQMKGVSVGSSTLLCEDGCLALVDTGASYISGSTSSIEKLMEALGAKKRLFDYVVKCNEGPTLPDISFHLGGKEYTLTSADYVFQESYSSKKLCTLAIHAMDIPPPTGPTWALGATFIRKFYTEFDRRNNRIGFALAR
The test can be described thus: Renin inhibitory effect in a human high renin plasma. The format is biochemical. As to conditions: pH 7.4, 30 minutes at 37° C., read-out: IC50 (molar concentration). The procedure: Renin inhibitory effect in a human high renin plasma A mixture of 350 μl of a 0.5M phosphate buffer containing 14 mM EDTA 2Na and a 0.3% neomycin sulfate, which was adjusted to the pH of 7.4, 50 μl of a 20 mM an aqueous solution of […] as an angiotensin converting enzyme inhibitor and 100 μl of dimethyl sulfoxide solution containing an amino acid compound of the present invention was added to 500 μl of human high renin plasma. […] was incubated for 30 minutes at 37° C. in a water bath. A 200 μl sample was withdrawn from the incubated mixture, chilled immediately in an ice bath, and the amount of angiotensin I produced was determined by radioimmunoassay, and remaining of the mixture (200 μ[…] 4° C. in an ice bath. The amount of angiotensin I produced in the incubated mixture at 4° C. in an ice bath was determined by radioimmunoassay. As a control, the same procedure as above was carried out by using 100 μl of dimethyl sulfoxide alone in place of the 100 μl of dimethyl sulfoxide solution containing an amino acid compound of the present invention. The inhibitory effect was calculated by the following equation. [formula] The molar concentration which produced 50% inhibition (IC50) was calculated from the inhibition value obtained, and the results are shown below.

In the next test the target is T2, human renin (Homo sapiens, UniProt P00797).
T2 sequence (P00797 67-406): T1 sequence (P00797 67-406)
The test is described as follows: Human renin-sheep renin substrate reaction system in vitro. It counts as biochemical. The conditions noted are these: pH 7.4, 15 minutes at 37° C., read-out: IC50 (molar concentration). As to the method:
Human resin-sheep resin substrate reaction system in vitro To a mixture containing 200 μl of a 125 mM pyrophosphate buffer (pH 7.4), 25 μl of a 20 mM aqueous solution of […] as an angiotensin converting enzyme inhibitor, 50 μl of semipurified sheep renin substrate ([…]), 50 μl of dimethyl sulfoxide solution of an amino acid derivative of the present invention (or 50 μl of dimethyl sulfoxide as a control) and 150 μl of deionized water was added 25 μl of purified human renin (20-30 ng angiotensin I/ml/hr). The mixture was incubated for 15 minutes on a water bath at 37° C., and the reaction mixture was allowed to stand for 5 minutes on a water bath at 100° C. to stop the reaction. After cooling, 200 μl of the solution were taken up and the amount of angiotensin I produced by the addition of renin was determined by radioimmunoassay. The inhibitory effect was calculated by the following equation. [formula] The molar concentration which produced 50% inhibition (IC50) was calculated from the inhibition value obtained, and the results are shown below.

The structures appear in SMILES notation. pIC50: −log10 of the molar value.

IC50 data for 16 compounds are collected here from patent publication US4857650A, “Novel renin inhibitory amino acid derivatives” (Kissei Pharmaceutical Co., Ltd., priority 1985, dated 1989).

Take `COC(=O)CC(Cc1cccc2ccccc12)C(=O)N[C@@H](Cc1c[nH]cn1)C(=O)N[C@@H](CC(C)C)C(O)C(=O)NCCC(C)C` (mixture of isomers) [(2RS,3S)-3-[3-Methoxycarbonyl-2-(1-naphthylmethyl)propionyl-L-histidyl]amino-2-hydroxy-5-methylhexanoylisoamylamide]: the pIC50 in test [1] is 6.16; on human renin, 6.66.

`COC(=O)CN(C)C(=O)CC(Cc1cccc2ccccc12)C(=O)N[C@@H](Cc1c[nH]cn1)C(=O)N[C@@H](CC(C)C)C(O)C(=O)NCCC(C)C` (mixture of isomers) [(2RS,3S)-3-{N-[2-(1-Naphthylmethyl)-3-(N-methyl-N-methoxycarbonylmethylcarbamoyl)propionyl]-L-histidyl}amino-2-hydroxy-5-methylhexanoylisoamylamide]: the pIC50 in test [1] is 6.47; at human renin it was 7.64.

On to `CC(C)C[C@H](NC(=O)[C@H](Cc1c[nH]cn1)NC(=O)C(CC(N)=O)Cc1cccc2ccccc12)C(O)C(=O)OC(C)C` (mixture of isomers) [Isopropyl (2RS,3S)-3-{N-[3-(carbamoyl)-2-(1-naphthylmethyl)propionyl]-L-histidyl}amino-2-hydroxy-5-methylhexanoate], for which the pIC50 in test [1] is 6.31; at human renin, 6.28.

With `CC(C)C[C@H](NC(=O)[C@H](Cc1c[nH]cn1)NC(=O)C(CC(=O)OC(C)C)Cc1cccc2ccccc12)C(O)C(=O)OC(C)C` (mixture of isomers) [Isopropyl (2RS,3S)-3-{N-[3-(isopropoxycarbonyl)-2-(1-naphthylmethyl)propionyl]-L-histidyl}amino-2-hydroxy-5-methylhexanoate], the pIC50 in test [1] was 6.80; on human renin, 7.19.

Take `COC(=O)CNC(=O)CC(Cc1cccc2ccccc12)C(=O)N[C@@H](Cc1c[nH]cn1)C(=O)N[C@@H](CC(C)C)C(O)C(=O)OC(C)C` (mixture of isomers) [Isopropyl(2RS,3S)-3-{N-[2-(1-naphthylmethyl)-3-(N-methoxycarbonylmethylcarbamoyl)propionyl]-L-histidyl}amino-2-hydroxy-5-methylhexanoate]: the pIC50 in test [1] is 7.12; on human renin, 6.62.

For the compound `CNC(=O)CNC(=O)CC(Cc1cccc2ccccc12)C(=O)N[C@@H](Cc1c[nH]cn1)C(=O)N[C@@H](CC(C)C)C(O)C(=O)OC(C)C` (mixture of isomers) [Isopropyl(2RS,3S)-3-{N-[2-(1-naphthylmethyl)-3-(N-methylcarbamoylmethylcarbamoyl)propionyl]-L-histidyl}amino-2-hydroxy-5-methylhexanoate], the pIC50 in test [1] is 6.54; on human renin, 6.21.

In the case of `CC(C)C[C@H](NC(=O)[C@H](Cc1c[nH]cn1)NC(=O)C(CC(=O)N(C)CCO)Cc1cccc2ccccc12)C(O)C(=O)OC(C)C` (mixture of isomers) [Isopropyl(2RS,3S)-3-{N-{2-(1-naphthylmethyl)-3-[N-methyl-N-(2-hydroxyethyl)carbamoyl]propionyl}-L-histidyl}amino-2-hydroxy-5-methylhexanoate], the values for the pIC50 (in test [1]; at human renin) were 7.55 and 7.39, respectively.

In the case of `COC(=O)CCN(C)C(=O)CC(Cc1cccc2ccccc12)C(=O)N[C@@H](Cc1c[nH]cn1)C(=O)N[C@@H](CC(C)C)C(O)C(=O)OC(C)C` (mixture of isomers) [Isopropyl(2RS,3S)-3-{N-{2-(1-naphthylmethyl)-3-[N-methyl-N-{2-methoxycarbonylethyl)carbamoyl]propionyl}-L-histidyl}amino-2-hydroxy-5-methylhexanoate], the pIC50 (in test [1]; at human renin) was 7.77 in each case.

As for `CC(C)C[C@H](NC(=O)[C@H](Cc1c[nH]cn1)NC(=O)C(CC(=O)N(CCO)CCO)Cc1cccc2ccccc12)C(O)C(=O)OC(C)C` (mixture of isomers) [Isopropyl(2RS,3S)-3-{N-{2-(1-naphthylmethyl)-3-[bis(2-hydroxyethyl)carbamoyl]propionyl}-L-histidyl}amino-2-hydroxy-5-methylhexanoate], the pIC50 in test [1] is 6.74; on human renin it was 7.05.

Regarding `COC(=O)CN(C)C(=O)CC(Cc1cccc2ccccc12)C(=O)N[C@@H](Cc1c[nH]cn1)C(=O)N[C@@H](CC(C)C)C(O)C(=O)OC` (mixture of isomers) [Methyl(2RS,3S)-3-{N-[2-(1-naphthylmethyl)-3-(N-methyl-N-methoxycarbonylmethylcarbamoyl)propionyl]-L-histidyl}amino-2-hydroxy-5-methylhexanoate], the pIC50 in test [1] was 7.85; at human renin, 7.92.

With `COC(=O)[C@@H]1CCCN1C(=O)CC(Cc1cccc2ccccc12)C(=O)N[C@@H](Cc1c[nH]cn1)C(=O)N[C@@H](CC(C)C)C(O)C(=O)NCCC(C)C` (stereo partly drawn) [(2RS,3S)-3-{N-[2-(1-Naphthylmethyl)-3-(2S-methoxycarbonylpyrrolidinocarbonyl)propionyl]-L-histidyl}amino-2-hydroxy-5-methylhexanoylisoamylamide], the results for the pIC50 (in test [1]; on human renin) were 6.54 and 7.08, respectively.

For `CC(C)C[C@H](NC(=O)[C@H](Cc1c[nH]cn1)NC(=O)C(CC(=O)N1CCC[C@H]1CO)Cc1cccc2ccccc12)C(O)C(=O)OC(C)C` (stereo partly drawn) [Isopropyl(2RS,3S)-3-{N-[2-(1-naphthylmethyl)-3-(2S-hydroxymethylpyrrolidinocarbonyl)propionyl]-L-histidyl}amino-2-hydroxy-5-methylhexanoate], the pIC50 in test [1] is 6.85; on human renin, 7.64.

`COC(=O)[C@@H]1CC(O)CN1C(=O)CC(Cc1cccc2ccccc12)C(=O)N[C@@H](Cc1c[nH]cn1)C(=O)N[C@@H](CC(C)C)C(O)C(=O)OC(C)C` (stereo partly drawn) [Isopropyl(2RS,3S)-3-{N-[2-(1-naphthylmethyl)-3-(4-hydroxy-2S-methoxycarbonylpyrrolidinocarbonyl)-propionyl]-L-histidyl}amino-2-hydroxy-5-methylhexanoate]: the pIC50 in test [1] was 6.72; at human renin, 7.39.

With `CC(C)C[C@H](NC(=O)[C@H](Cc1c[nH]cn1)NC(=O)C(CC(=O)N[C@@H](C)C(N)=O)Cc1cccc2ccccc12)C(O)C(=O)OC(C)C` (stereo partly drawn) [Isopropyl(2RS,3S)-3-{N-{2-(1-naphthylmethyl)-3-[N-(1S-carbamoylethyl)carbamoyl]propionyl}-L-histidyl}amino-2-hydroxy-5-methylhexanoate], the values for the pIC50 (in test [1]; on human renin) were 6.62 and 6.36, respectively.

`COC(=O)[C@H](C)NC(=O)CC(Cc1cccc2ccccc12)C(=O)N[C@@H](Cc1c[nH]cn1)C(=O)N[C@@H](CC(C)C)C(O)C(=O)OC(C)C` (stereo partly drawn) [Isopropyl(2RS,3S)-3-{N-{2-(1-naphthylmethyl)-3-[N-(1S-methoxycarbonylethyl)carbamoyl]propionyl}-L-histidyl}amino-2-hydroxy-5-methylhexanoate]: the pIC50 is 6.68 in test [1] and 6.52 at human renin.

For the compound `COC(=O)C[C@@H](C(=O)OC)N(C)C(=O)CC(Cc1cccc2ccccc12)C(=O)N[C@@H](Cc1c[nH]cn1)C(=O)N[C@@H](CC(C)C)C(O)C(=O)OC(C)C` (stereo partly drawn) [Isopropyl(2RS,3S)-3-{N-{2-(1-naphthylmethyl)-3-[N-methyl-N-(1S,2-bismethoxycarbonylethyl)carbamoyl]-propionyl}-L-histidyl}amino-2-hydroxy-5-methylhexanoate], the pIC50 in test [1] is 6.72; on human renin it was 7.09.
